Where two headings read alike, the source gives them in different places.
Assays:
[1] = tested on: WM35 cells; test: PARP cleavage, Western blot (apoptosis); assay type: cell-based, human; conditions: 15 μM CDDP, as early as
Protocol: (§1) SDS-PAGE and Western Blot Analysis. Cell lysates were prepared using lysis buffer consisting of 50 mM Tris, pH 7.4, 50 mM NaCl, 2 mM MgCl2, 1 mM EDTA, 05% IDEPAL CA-630 and protease inhibitors (0.1 mM PMSF, 100 μM sodium vanadate, 20 μg/ml leupeptin, 20 mM […], 1 mM benzamide). Protein concentrations were determined by the Bradford assay (BioRad Laboratories) and equivalent quantities of protein (25 μg) were resolved by SDS-polyacrylamide gel electrophoresis (Laemmli (1970) Nature, 227, 680-685). […] Membranes were then incubated with a horseradish-peroxidase conjugated goat anti-rabbit antibody (1:5000 dilution) and immunoreactive sites were detected by enhanced chemiluminescence (Amersham). […]
(§2) The mechanism of action of CDDP, as well as other DNA alkylating agents ultimately involves generation of DNA damage and subsequently the induction of apoptosis. In order to determine if the increased resistance to CDDP in the retrovirally derived clones was associated with a reduction in CDDP-induced apoptosis, the levels of apoptosis in one of these clones (Clone E) relative to its parental WM35 cells were determined following treatment with 15 μM CDDP.
(§3) Increased cleavage of poly-ADP-ribose-polymerase (PARP) from the 116 kDa to the smaller 84 kDa subunit in WM35 cells was detected as early as 6 bours following 15 μM CDDP treatment. […]

[2] = tested on: Clone E cells; test: PARP cleavage, Western blot (apoptosis); assay type: cell-based, human; conditions: 15 μM CDDP, up to 24 hours
Protocol: as §1, §2, §3

[3] = tested on: Clone E and Clone G cells vs WM35 cells; test: CDDP resistance of retrovirally derived clones compared to parental WM35; assay type: cell-based, human; conditions: approximately
Protocol: (§4) Cells and Culture Conditions. All human melanoma cell lines were generously provided by Dr. Meenhard Herlyn (Wistar Institute, Philadelphia, Pa.). The CDDP-resistant variants of WM35 (designated as Clone A to Clone I) were established by retroviral insertioual mutagenesis of WM35 cells as described previously (Lu et al. (1995) Cancer Res. 55:1139-1145). Cells were routinely maintained in RPMI 1640 (Life Technologies) supplement with 5% FBS (Life Technologies) at 37° C. in a humidified atmosphere of 95% air; 5% CO2.
This technique of retroviral insertional mutagenesis was applied on WM35 cells, an early stage CDDP sensitive human melanoma cell line. WM35 cells were infected with a replication defective amphotrophic murine stein cell virus (MSCV) retrovirus and the pooled cells were subsequently selected for CDDP resistance.
From this technique, nine independently derived clones, Clone A to Clone I, were obtained. […] Since changes in tumor sensitivities in the range of 2-5 fold can account for loss of tumor responsiveness to anti-cancer therapeutic drugs, this difference could be clinically significant (Kuroda et al. (1991) Int. J. Cancer 47:732-737).

[4] = tested on: XR9 cells (x-ray resistant variant of WM35); test: MTS cytotoxicity assay, CDDP treatment; assay type: cell-based, human; conditions: 15 μM CDDP, 24 hour incubation, mean ± SEM, n=3
Protocol: Gamma radiation resistant mutant cell lines were selected using retroviral insertional mutagenesis, with selection based on resistance to gamma radition. X-ray resistant mutant cell lines, designated as “XR” were established.
(§5) To determine the correlation between levels of TYRP2 expression and CDDP resistance, the cells assessed in the UV(B) survival assay as shown in Table 2 were further assessed for resistance to CDDP. Cells were plated in 96-well plates and treated with 15 μM CDDP. After a 24 hour incubation, cell viability was determined by the MTS assay.

[5] = tested on: WM35 cells; test: MTS cytotoxicity assay, CDDP treatment; assay type: cell-based, human; conditions: 15 μM CDDP, 24 hour incubation, mean ± SEM, n=3
Protocol: as §4, §5

[6] = tested on: 1552C cells; test: MTS cytotoxicity assay, CDDP treatment; assay type: cell-based, human; conditions: 15 μM CDDP, 24 hours, MTS assay (FIG. 9)
Protocol: as §4
(§6) FIG. 9 illustrates the response of melanoma cell lines to CDDP treatment. Each of the cell lines indicated were plated in 96-well plates at a density of 1×10^5 cells/well and treated with 15 μM CDDP for 24 hours. Percentage of viable cells were determined by the MTS assay. […] The levels TYRP2 expression in these cells directly correlated with their resistance to CDDP treatment (15 μM CDDP, 24 hours). For example, the cell line WM9, which expresses very low levels of TYRP2 was very sensitive to CDDP treatment (<20% of cells survived). Conversely, the cell lines WM451 and MeWo, for example, which express high levels of TYRP2 were resistant to CDDP treatment (approximately 80% of cells survived).

[7] = tested on: WM1341B cells; test: MTS cytotoxicity assay, CDDP treatment; assay type: cell-based, human; conditions: 15 μM CDDP, 24 hours, MTS assay (FIG. 9)
Protocol: as §4, §6

[8] = tested on: WM373 cells; test: MTS cytotoxicity assay, CDDP treatment; assay type: cell-based, human; conditions: 15 μM CDDP, 24 hours, MTS assay (FIG. 9)
Protocol: as §4, §6

[9] = tested on: WM451 cells; test: MTS cytotoxicity assay, CDDP treatment; assay type: cell-based, human; conditions: 15 μM CDDP, 24 hours, MTS assay (FIG. 9)
Protocol: as §4, §6

[10] = tested on: WM35 cells vs Clone E cells; test: DNA fragmentation assay, Cell Death Detection ELISA; assay type: cell-based, human; conditions: 15 μM CDDP, 18 hours
Protocol: DNA Fragmentation Assay. Levels of apoptosis were determined by quantifying DNA fragmentation using the Cell Death Detection ELISA Plus kit (Boehringer Mannheim). Briefly, cells were plated in 96-well plates at a density of 1×10^4 cells/well and allowed to attach overnight. Cells were treated with 15 μM CDDP for 18 hours and then lysed. Cell lysates were transferred to streptavidin-coated plates and used for ELISA analysis using anti-bistone-biotin and anti-DNA POD antibodies.
FIG. 2 illustrates DNA fragmentation analysis by ELISA using antibodies that recognize mono- and oligonucleotide fragments. Mono- and oligo-nucleosomes in the DNA of WM35 cells treated with 15 μM CDDP for 18 hours, were detected with a Cell Death ELISA Detection Kit (Boehringer Mannheim). The production of DNA 180 bp multimers was approximately 5 times greater in WM35 cells than in Clone E cells.

[11] = tested on: WM9 derived tumors; test: WM9 tumors in immunodeficient CD-1 nude mice, CDDP treatment; assay type: in vivo; conditions: CDDP 2 mg/kg/2 days
Protocol: (§7) In order to determine the significance of TYRP2-mediated CDDP resistance in vivo, tumors were generated in immunodeficient CD-1 mice by subcutaneous injection of 2×10^6 cells of either MeWo or WM9. WM35 cells were not used for in vivo studies because they lack tumorigenicity (Bani et al. (1996) Cancer Res. 56:3075-3086). […] Mice bearing these tumors were treated with CDDP three times weekly at a dose of 2 mg/kg.
FIG. 13 illustrates the correlation between TYRP2 expression and CDDP resistance in vivo in WM9 cells. Tumors were generated in immunodeficient CD-1 nude mice by subdermally injecting WM9 cells. […] By day 18 of treatment, the tumors in 2 of 5 mice had completely disappeared.

[12] = tested on: MeWo derived tumors; test: MeWo tumors in immunodeficient CD-1 nude mice, CDDP treatment; assay type: in vivo; conditions: CDDP 2 mg/kg/2 days
Protocol: as §7
FIG. 12 illustrates the correlation between TYRP2 expression and CDDP resistance in vivo. Tumors were generated in immunodeficient CD-1 nude mice by subdermally injecting MeWo cells.

[13] = tested on: Clone E cells (CDDP-resistant variant of WM35); test: MTS cytotoxicity assay, CDDP treatment; assay type: cell-based, human; conditions: 15 μM CDDP
Protocol: as §4, §6, §5

[14] = tested on: MeWo cells; test: MTS cytotoxicity assay, CDDP treatment; assay type: cell-based, human; conditions: 15 μM CDDP
Protocol: as §4, §6, §5

[15] = tested on: WM9 cells; test: MTS cytotoxicity assay, CDDP treatment; assay type: cell-based, human; conditions: 15 μM CDDP
Protocol: as §4, §6, §5

[16] = tested on: Clone E and Clone G cells vs WM35 cells; test: Cross resistance of CDDP-resistant clones, MTS assay; conditions: 24 hours treatment, various concentrations, MTS assay (FIG. 3)
Protocol: (§8) Cytotoxicity Assay. The number of viable cells following a treatment was assessed using the CellTiter™ 96 Aqueous Non-Radioactive MTS Cell Proliferation Assay (Promega). Briefly, 1×10^4 cells/well were plated in 96-well plates, allowed to attach overnight and then administered therapeutic agents at various levels for 24 hours. Four hours prior to harvest, MTS/phenazine methosulfate was added to the cells and the number of variable cells was determined by measuring the quantity of formazan by spectrophotometric analysis at 490 nm.
(§9) The indicated cell lines were cultured in 96 well plates at a density of 8×10^3 cells per well and treated for 24 hours with either A) carboplatin; B) taxol; or C) methotrexate, at the indicated concentrations. Cell viabilities were determined using the MTS assay (Promega), measuring the cellular conversion of the tetrazolium salt, MTS, into formula which can be quantified at 490 nm.

[17] = tested on: Clone E and Clone G cells vs WM35 cells
Protocol: as §8, §9

[18] = 24 hour incubation, MTS assay, mean ± SEM, n=3

Structure (SMILES): N.N.[Cl][Pt][Cl] [CDDP, cis-diamminedichloroplatinum(II)]
- time at which increased PARP cleavage (116 kDa to 84 kDa subunit) was detected [1]: 6 bours
- increased levels of PARP cleavage [2]: not evident
- increase in CDDP resistance compared to parental WM35 cells [3]: 2 to 3 fold
- % Survival [4]: 82.4 ± 1.7%
- % Survival [5]: 52.6 ± 4.4%
- sensitivity to CDDP treatment [6]: highly sensitive
- survival compared to WM35 cells [7]: substantially higher survival
- survival compared to WM35 cells [8]: substantially higher survival
- % of cells survived [9]: approximately 80%
- production of DNA 180 bp multimers, WM35 cells relative to Clone E cells [10]: approximately 5 times
- growth rates of tumors relative to saline treated controls [11]: significant reduction in growth rates
- mice whose tumors had completely disappeared ([11]; by day 18 of treatment): 2 of 5
- growth rates of tumors, CDDP treated vs saline treated mice [12]: did not differ
- % Survival [13, 18]: 77.4 ± 6.7%
- survival compared to WM35 cells ([13]; 24 hours, MTS assay (FIG. 9)): substantially higher survival
- % Survival [14, 18]: 77.0 ± 5.3%
- % of cells survived ([14]; 24 hours, MTS assay (FIG. 9)): approximately 80%
- % Survival [15, 18]: 13.8 ± 1.6%
- % of cells survived ([15]; 24 hours, MTS assay (FIG. 9)): < 20%

Structure (SMILES): N.N.O=C([O-])C1(C(=O)[O-])CCC1.[Pt+2] [carboplatin]
- resistance of Clone E and Clone G to cytotoxic effects compared to WM35 cells [16]: more resistant

Structure (SMILES): CN(Cc1cnc2nc(N)nc(N)c2n1)c1ccc(C(=O)N[C@@H](CCC(=O)O)C(=O)O)cc1 [methotrexate]
- resistance of Clone E and Clone G to cytotoxic effects compared to WM35 cells [17]: more resistant

Structure (SMILES): CC(=O)O[C@H]1C(=O)[C@@]2(C)[C@H]([C@H](OC(=O)c3ccccc3)[C@]3(O)C[C@H](OC(=O)[C@H](O)[C@@H](NC(=O)c4ccccc4)c4ccccc4)C(C)=C1C3(C)C)[C@]1(OC(C)=O)CO[C@@H]1C[C@@H]2O [taxol]
- resistance of Clone E and Clone G to cytotoxic effects compared to WM35 cells [17]: equally sensitive
